# Measurements taken from US6451618B2, “Test for detecting substances which alter the conformational structure of zinc fingers” (priority 1997, dated 2002).
# Where two headings read alike, the source gives them in different places.
# Tests used:
# [1] = biological target: T1, TFIIIA (Xenopus laevis, UniProt P03001); assay type: binding; set-up: Immature ovarian tissue was dissected from 4-5 cm female X. laevis frogs; from tissue; host or cells: immature ovarian tissue (oocytes) of Xenopus laevis; 7S particles, 5S RNA removed with RNase A; conditions: for inhibition of TFIIIA-5S RNA gene interaction: 10 μM, data not shown; for TFIIIA zinc finger affected by xenobiotic: general statement; for concentration giving complete inhibition of TFIIIA binding: complete loss of DNase I protection and hypersensitivity; for concentration at which TFIIIA binding to the 5S RNA gene is inhibited: loss of DNase I protection, nucleotides +43 to +96, TFIIIA preincubated with metal; for reversibility of inhibition of TFIIIA binding: not overcome by added zinc ions
# Experimental: Inhibition of TFIIIA binding to the 5S ribosomal RNA gene was assayed by the DNase I protection method. In this assay, TFIIIA isolated from frogs, or as a recombinant protein, was incubated for a short period of time with a radioactively labeled double-stranded DNA fragment containing the 5S ribosomal RNA gene sequence (120 base-pairs in length). In TFIIIA's role in regulating ribosome synthesis, the protein birds specifically and tightly to this 5S gene sequence. When this occurs, the bound protein protects a large region of the 5S RNA gene from DNase I digestion. DNase I normally degrades the 5S gene and in the process generates a series of differently sized DNA fragments which can be resolved by electrophoresis. TFIIIA binding protects a DNA region comprising approximately 53 base pairs from DNase I degradation.
# Cadmium and aluminum inhibition of TFIIIA binding was ascertained by observing the loss of this protected region from 5S gene nucleotides (+43 to +96).
# The end-labeled fragment was ethanol precipitated, redigested with BamHI and the smaller fragment was purified by PAGE. Specific activity of the fragment was determined by absorbance at 260 nm and Cerenkov counting. To examine the effects of various metals on the TFIIIA-5S RNA gene interaction TFIIIA (10 nM) was incubated with the various metals (chloride salts of all metals were ultrapure grade and purchased from Aldrich; concentrations are indicated in the figure legends) in 20 mM Tris-HCl, pH 7.6, 70 mM NH4Cl, 7 mM MgCl2, 0.4 mM DTT and 0.1% NP-40 for 10 min prior to addition of the DNA fragment containing the end-labeled 5S RNA gene (1 nM). After addition of DNA the reaction (20 μl ) was incubated at room temperature for an additional 15 min. The reactions were then incubated for an additional 1 min in DNase I (2 μg/ml final concentration) and digestion was terminated by addition of 100 μl stop buffer (20 mM Tris-HCl, pH 7.6, 1 mM EDTA, 0.1% SDS, 30 μg/ml sonicated salmon sperm DNA). […] Gel autoradiography was performed overnight at −70° C. with Kodak XAR-5 film and a Dupont Cronex intensifying screen.
# Target sequence in this assay (P03001 23-366): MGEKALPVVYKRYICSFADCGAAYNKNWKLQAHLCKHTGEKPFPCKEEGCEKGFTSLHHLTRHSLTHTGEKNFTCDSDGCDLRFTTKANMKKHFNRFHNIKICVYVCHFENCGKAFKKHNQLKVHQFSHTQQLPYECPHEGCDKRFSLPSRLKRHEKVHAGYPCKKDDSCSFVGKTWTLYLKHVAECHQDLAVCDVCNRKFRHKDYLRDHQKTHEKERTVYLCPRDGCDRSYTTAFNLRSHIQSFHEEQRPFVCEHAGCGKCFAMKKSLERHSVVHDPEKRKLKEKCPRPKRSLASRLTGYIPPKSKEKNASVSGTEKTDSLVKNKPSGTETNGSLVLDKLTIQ
# [2] = biological target: T1, TFIIIA; assay: TFIIIA-dependent DNA renaturation assay; assay type: biochemical; set-up: Immature ovarian tissue was dissected from 4-5 cm female X. laevis frogs; from tissue; host or cells: immature ovarian tissue (oocytes) of Xenopus laevis; 7S particles, 5S RNA removed with RNase A
# Target sequence in this assay (P03001 23-366): as above
# Experimental: DNA migration in the Tris-phosphate agarose gel electrophoresis system used in the DNA renaturation assay is sensitive to some types of DNA structural changes. This assay is useful in this study because it can detect structural changes in the nanomolar DNA concentration range.
# DNA renaturation (hybridization of complementary single-stranded DNA) was assayed by binding 20 nM Xenopus TFIIIA to 2 nM heat-denatured ^32P labeled 5S gene DNA for 15 min. Reactions are terminated by detergent and electrophoresed on an agarose gel which resolves the slower migrating single-stranded DNA (s.s.) from the faster migrating double-stranded DNA (d.s.) DNA bands are visualized by autoradiography. […] DNA migration in the absence and presence of cadmium.
# TFIIIA isolation, ^32P-end-labeling of the 5S RNA gene, denaturation and renaturation reactions, Tris-phosphate agarose gel electrophoresis and autoradiography were performed as described above in the methodology section herein. […]
# [3] = tested on: estrogen receptor (ER); conditions: hormone-bound estrogen receptor; cited from earlier work
# [4] = tested on: estrogen receptor (ER); conditions: cited from earlier work
# [5] = biological target: T1, TFIIIA; conditions: excitation 360 nanometers
# Experimental: Zinc is then removed from TFIIIA (- ZINC sample) by incubation with the zinc chelator, ethylenediamine tetraacetic acid (EDTA). Relative emission fluorescent intensity spectra of the TFIIIA-bound AEDANS probe are recorded using an excitation wavelength of 360 nanometers.
# Target sequence in this assay (P03001 23-366 limits assumed): as the sequence (P03001 23-366) above
compound,measurement,setting,value
[Cl-].[Cl-].[Mg+2] [Mg^2+],inhibition of TFIIIA-5S RNA gene interaction,[1],non-inhibitory
HgCl2 [Mercury],TFIIIA zinc finger affected by xenobiotic,[1],not
same,inhibition of TFIIIA zinc finger binding to DNA,"[1]; preincubated in 5, 10, 15, 20 μM HgCl2",does not inhibit
[Cl-].[Cs+] [Cs^2+],inhibition of TFIIIA-5S RNA gene interaction,[1],non-inhibitory
same,TFIIIA zinc finger affected by xenobiotic,[1],not
"[Cl][Al]([Cl])[Cl] [Al^3+, AlCl3]",inhibitory concentration relative to that for Cd2+,[1]; Al3+ versus Cd2+,about 50 fold
same,concentration giving slight inhibition of TFIIIA binding,[1]; FIG. lane 3,1 µM
same,concentration giving complete inhibition of TFIIIA binding,[1],5 to 7 µM
same,TFIIIA zinc finger affected by xenobiotic,[1],affected
same,concentration at which TFIIIA binding to the 5S RNA gene is inhibited,[1],3 µM
same,reversibility of inhibition of TFIIIA binding,[1],irreversible
same,inhibition of TFIIIA-dependent DNA renaturation,[2]; TFIIIA preincubated with 50 μM AlCl3 (panel B),Inhibition of TFIIIA-dependent renaturation
"[Cl][Cd][Cl] [Cd^2+, CdCl2]",concentration inhibiting DNA binding by activated receptors,[3],1 mM
same,concentration inhibiting initial binding of hormone to receptor,[4],0.1 mM
same,in vitro inhibitory concentration relative to serum concentration in moderate to heavy smokers,[1]; 0.1 μM Cd2+ for TFIIIA,approximately 5 fold
same,inhibitory molecules of metal ion per TFIIIA molecule,[1]; at 0.1 μM Cd2+,< 10 molecules per TFIIIA molecule
same,concentration giving complete inhibition of TFIIIA binding,[1],0.25 µM
same,TFIIIA zinc finger affected by xenobiotic,[1],affected
same,concentration at which TFIIIA binding to the 5S RNA gene is inhibited,[1],0.1 µM
same,reversibility of inhibition of TFIIIA binding,[1],irreversible
same,inhibition of TFIIIA-dependent DNA renaturation,"[2]; TFIIIA 10, 20 or 30 nM preincubated with 1 μM CdCl2",inhibition of DNA renaturation
"O=C(O)CN(CCN(CC(=O)O)CC(=O)O)CC(=O)O [EDTA, ethylenediamine tetraacetic acid]",emission wavelength after zinc removal,[5]; blue shift from 485 nanometers,478 nanometers
same,increase of emission fluorescence intensity,[5]; zinc removed from TFIIIA by EDTA,25%
[Cl][Pb][Cl] [PbCl2],TFIIIA zinc finger affected by xenobiotic,[1],affected
same,concentration at which TFIIIA binding to the 5S RNA gene is inhibited,[1],≥ 10 µM
O=[Se]([O-])[O-].[Na+].[Na+] [Na2SeO3],TFIIIA zinc finger affected by xenobiotic,[1],affected
same,concentration at which TFIIIA binding to the 5S RNA gene is inhibited,[1],≥ 25 µM
"[AsH3] [Arsenic, NaH2AsO4]",inhibition of TFIIIA zinc finger binding to DNA,"[1]; preincubated with 0.1, 0.5 or 1.0 mM NaH2AsO4",does not inhibit
[Cl][Mn][Cl] [Mn^2+],inhibition of TFIIIA-5S RNA gene interaction,[1],non-inhibitory
same,TFIIIA zinc finger affected by xenobiotic,[1],not
